The text below walks through data of patent publication US11981677B2, “Further substituted triazolo quinoxaline derivatives” (Grünenthal GmbH, priority 2018, dated 2024).

Bounds are passed on as bounds.

The assay concerns the target T1, Glucocorticoid Receptor (Homo sapiens, UniProt P04150).
T1 construct: expressed in transfected cells
T1 sequence (P04150 524-758 limits assumed): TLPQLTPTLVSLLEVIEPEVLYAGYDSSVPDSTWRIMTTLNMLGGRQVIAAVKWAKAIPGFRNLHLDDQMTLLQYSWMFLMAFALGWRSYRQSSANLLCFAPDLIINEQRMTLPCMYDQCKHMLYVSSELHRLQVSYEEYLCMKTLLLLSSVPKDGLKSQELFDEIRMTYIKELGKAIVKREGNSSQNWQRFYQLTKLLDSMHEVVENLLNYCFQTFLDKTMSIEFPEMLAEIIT
The experiment in a line: Agonistic mode of action on the glucocorticoid receptor (CHO-Gal4/GR luciferase reporter cell line). It is filed as cell-based. As to conditions: CHO-Gal4/GR luciferase reporter cells; observed in the agonistic assay or the antagonistic assay (mode not given); read-out: IC50 or EC50 range. From the text:
Potential selective glucocorticoid receptor modulators of this intervention can be tested for modulation of the activity of the glucocorticoid receptor using cell-based assays. These assays involve a Chinese hamster ovary (CHO) cell line which contains fragments of the glucocorticoid receptor as well as fusion proteins. The glucocorticoid receptor fragments used are capable of binding the ligand (e.g. beclomethasone) to identify molecules that compete for binding with glucocorticoid receptor ligands. In more detail, the glucocorticoid receptor ligand binding domain is fused to the DNA binding domain (DBD) of the transcriptionfactor GAL4 (GAL4 DBD-GR) and is stably integrated into a CHO cell line containing a GAL4-UAS-Luciferase reporter construct. […] After cell lysis the luminescence that is produced by luciferase after addition of the substrate is detected and EC50 or IC50 values can be calculated. Engagement of molecules which induce gene expression via glucocortocoid receptor binding to the DNA leads to expression of the luciferase gene under the control of the fusion protein GAL4 DBD-GR and therefore to a dose-dependent increase of the luminescence signal. Binding of molecules which repress beclomethasone-induced gene expression of the luciferase gene under the control of the fusion protein GAL4 DBD-GR leads to a dose-dependent reduction of the luminescence signal.
The reporter cell line CHO-Gal4/GR consisted of a chinese hamster ovary (CHO) cell line (Leibniz Institute DSMZ—German Collection of Microorganisms and Cell Cultures GmbH: ACC-110) containing a firefly luciferase gene under the control of the GR ligand binding domain fused to the DNA binding domain (DBD) of GAL4 (GAL4 DBD-GR) stably integrated into CHO cells. This cell line was established by stable transfection of CHO cells with a GAL4-UAS-Luciferase reporter construct. In a subsequent step the ligand binding domain of the GR cloned into pIRES2-EGFP-GAL4 containing the DNA binding domain of GAL4 from pFA-AT2 was transfected. This fusion construct activated firefly luciferase expression under the control of a multimerized GAL4 upstream activation sequence (UAS). The signal of the emitted luminescence was recorded by the FLIPR^TETRA. This allowed for specific detection of ligand-induced activation of the GR and therefore for the identification of compounds with agonistic properties. The GAL4/UAS reporter was premixed with a vector that constitutively expressed Renilla luciferase, which served as an internal positive control for transfection efficiency.
The complete culture medium for the assay was: • DMEM F-12 (1:1) MIXTURE (LONZA cat. No: BE04-687F/U1) 500 mL • 5 mL of 100 mM Sodium Pyruvate (LONZA cat. No: BE12-115E) • 25 mL of 7.5% Sodium Bicarbonate (LONZA cat. No BE17-613E) • 6.5 mL of 1 M Hepes (LONZA cat. No: BE17-737E) • 5 mL of 100× Penicillin/Streptomycin (LONZA cat. No DE17-602E) • 50 mL of Fetal Bovine Serum (Euroclone cat. No ECS 0180L) • 0.25 mL of 10 mg/mL Puromycin (InvivoGen cat.: ant-pr-1) • 0.5 mL of 100 mg/mL Zeocin (InvivoGen cat.: ant-zn-1)
Cryo-preserved CHO-Gal4/GR cells were suspended in complete medium and 5000 cells/25 μl/well were seeded into the wells of 384-well polystyrene assay plates (Thermo Scientific, cat. #4332) and cultured at 37° C., 5% CO2 and 95% humidity. After 24 hours growth medium was carefully removed and replaced by 30111 Opti-MEM (GIBCO, cat. #31985062) as assay buffer. To test the compounds an 8-point half-log compound dilution curve was generated in 100% DMSO starting from a 2 mM stock and compounds were then diluted 1:50 in Opti-MEM. 10111 of compounds were then added to the wells containing 30 μl Opti-MEM resulting in a final assay concentration range from 10 μM to 0.003 μM in 0.5% DMSO. Compounds were tested at 8 concentrations in quadruplicate data points. […] Finally, cells were lysed with 20 μl of Triton/Luciferin solution and the signal of the emitted luminescence was recorded at the FLIPR^TETRA for 2 minutes. […]
Regarding `Cc1c(-c2cccc3c2cnn3S(C)(=O)=O)c(Cl)c(F)c2c1-n1c(C)nnc1C(C)(C)N2` [Example 527, 7-Chloro-6-fluoro-1,4,4,9-tetramethyl-8-(1-methylsulfonyl-1H-indazol-4-yl)-5H-[1,2,4]triazolo[4,3-a]quinoxaline], the IC50 or EC50 (antagonist or agonist mode, not stated per compound) was in the range of 100 to 1000 nM.

For the compound `COc1cc(-c2cc(F)c3c(c2OC)-n2c(C)nnc2C(C)(C)N3)c2ccn(S(C)(=O)=O)c2c1` [Example 524, 6-Fluoro-9-methoxy-8-(6-methoxy-1-methylsulfonyl-1H-indol-4-yl)-1,4,4-trimethyl-5H-[1,2,4]triazolo[4,3-a]quinoxaline], the IC50 or EC50 (antagonist or agonist mode, not stated per compound) lay in the range of 100 to 1000 nM. In the case of `Cc1c(-c2cc(F)cc3c2cnn3S(C)(=O)=O)c(F)c(F)c2c1-n1c(C)nnc1C(C)(C)N2` [Example 452, 6,7-Difluoro-8-(6-fluoro-1-methylsulfonyl-1H-indazol-4-yl)-1,4,4,9-tetramethyl-5H-[1,2,4]triazolo[4,3-a]quinoxaline] it was under 100 nM; in that of `Cc1nnc2n1-c1c(c(F)c(F)c(-c3cc(F)cc4c3ccn4S(C)(=O)=O)c1C(F)(F)F)NC2(C)C` [Example 518, 6,7-difluoro-8-(6-fluoro-1-(methylsulfonyl)-1H-indol-4-yl)-1,4,4-trimethyl-9-(trifluoromethyl)-4,5-dihydro-[1,2,4]triazolo[4,3-a]quinoxaline], 100 to 1000 nM; in that of `Cc1c(-c2cccc3c2ccn3S(C)(=O)=O)c(F)c(F)c2c1-n1c(C)nnc1C(C)(C)N2` [Example 448, 6,7-difluoro-1,4,4,9-tetramethyl-8-(1-(methylsulfonyl)-1H-indol-4-yl)-4,5-dihydro-[1,2,4]triazolo[4,3-a]quinoxaline], under 100 nM. Regarding `Cc1c(-c2cc(F)cc3c(C)c[nH]c23)cc(Cl)c2c1-n1c(C)nnc1C(C)(C)N2` [Example 454, 6-Chloro-8-(5-fluoro-3-methyl-1H-indol-7-yl)-1,4,4,9-tetramethyl-5H-[1,2,4]triazolo[4,3-a]quinoxaline], the IC50 or EC50 (antagonist or agonist mode, not stated per compound) is under 100 nM. For `COc1c(-c2cc(F)cc3[nH]ncc23)cc(F)c2c1-n1c(C)nnc1C(C)(C)N2` [Example 495, 6-Fluoro-8-(6-fluoro-1H-indazol-4-yl)-9-methoxy-1,4,4-trimethyl-5H-[1,2,4]triazolo[4,3-a]quinoxaline], the IC50 or EC50 (antagonist or agonist mode, not stated per compound) was in the range of 100 to 1000 nM. As for `CNc1c(-c2cc(F)cc3c2ccn3S(C)(=O)=O)cc(F)c2c1-n1c(C)nnc1C(C)(C)N2` [Example 486, [6-Fluoro-8-(6-fluoro-1-methylsulfonyl-1H-indol-4-yl)-1,4,4-trimethyl-5H-[1,2,4]triazolo[4,3-a]quinoxalin-9-yl]-methyl-amine], the IC50 or EC50 (antagonist or agonist mode, not stated per compound) was 100 to 1000 nM. Regarding `CCc1nnc2n1-c1c(C)c(-c3cccc4c(C)c[nH]c34)cc(F)c1NC2(C)C` [Example 355, 1-Ethyl-6-fluoro-4,4,9-trimethyl-8-(3-methyl-1H-indol-7-yl)-5H-[1,2,4]triazolo[4,3-a]quinoxaline], the IC50 or EC50 (antagonist or agonist mode, not stated per compound) lay within 100 to 1000 nM. Regarding `Cc1c(-c2cccc3c2ccn3CCN(C)C)cc(F)c2c1-n1c(C)nnc1C(C)(C)N2` [Example 375, [2-[4-(6-Fluoro-1,4,4,9-tetramethyl-5H-[1,2,4]triazolo[4,3-a]quinoxalin-8-yl)-1H-indol-1-yl]-ethyl]-dimethyl-amine], the IC50 or EC50 (antagonist or agonist mode, not stated per compound) is 100 to 1000 nM.

In the case of `Cc1c(-c2cccc3c2cnn3S(C)(=O)=O)cc(Cl)c2c1-n1c(C)nnc1C(C)(C)N2` [Example 458, 6-Chloro-1,4,4,9-tetramethyl-8-(1-methylsulfonyl-1H-indazol-4-yl)-5H-[1,2,4]triazolo[4,3-a]quinoxaline], the IC50 or EC50 (antagonist or agonist mode, not stated per compound) fell in the range of 100 to 1000 nM. Turning to `Cc1nnc2n1-c1c(c(F)c(F)c(-c3cccc4c3ccn4S(C)(=O)=O)c1C(F)(F)F)NC2(C)C` [Example 500, 6,7-difluoro-1,4,4-trimethyl-8-(1-(methylsulfonyl)-1H-indol-4-yl)-9-(trifluoromethyl)-4,5-dihydro-[1,2,4]triazolo[4,3-a]quinoxaline], the IC50 or EC50 (antagonist or agonist mode, not stated per compound) lay in the range of 100 to 1000 nM. Regarding `CCc1nnc2n1-c1c(C)c(-c3cc(F)cc4c3ccn4S(C)(=O)=O)cc(F)c1NC2(C)C` [Example 323, 1-Ethyl-6-fluoro-8-(6-fluoro-1-methylsulfonyl-1H-indol-4-yl)-4,4,9-trimethyl-5H-[1,2,4]triazolo[4,3-a]quinoxaline], the IC50 or EC50 (antagonist or agonist mode, not stated per compound) fell in the range of 100 to 1000 nM. Under `COc1c(-c2cccc3c2ccn3S(C)(=O)=O)c(F)c(F)c2c1-n1c(C)nnc1C(C)(C)N2` [Example 499, 6,7-Difluoro-9-methoxy-1,4,4-trimethyl-8-(1-methylsulfonyl-1H-indol-4-yl)-5H-[1,2,4]triazolo[4,3-a]quinoxaline] stands 100 to 1000 nM; under `CCS(=O)(=O)n1ccc2c(-c3cc(F)c4c(c3C(F)F)-n3c(C)nnc3C(C)(C)N4)cc(F)cc21` [Example 460, 9-(Difluoro-methyl)-8-[1-(ethylsulfonyl)-6-fluoro-1H-indol-4-yl]-6-fluoro-1,4,4-trimethyl-5H-[1,2,4]triazolo[4,3-a]quinoxaline], under 100 nM; under `COc1c(-c2cc(F)cc3c(C)c[nH]c23)cc(F)c2c1-n1c(C3CC3)nnc1C(C)(C)N2` [Example 62, 1-Cyclopropyl-6-fluoro-8-(5-fluoro-3-methyl-1H-indol-7-yl)-9-methoxy-4,4-dimethyl-5H-[1,2,4]triazolo[4,3-a]quinoxaline], 100 to 1000 nM. As to `Cc1c(-c2cc(F)cc3c2cnn3S(C)(=O)=O)c(Cl)c(F)c2c1-n1c(C)nnc1C(C)(C)N2` [Example 525, 7-Chloro-6-fluoro-8-(6-fluoro-1-methylsulfonyl-1H-indazol-4-yl)-1,4,4,9-tetramethyl-5H-[1,2,4]triazolo[4,3-a]quinoxaline], the IC50 or EC50 (antagonist or agonist mode, not stated per compound) is under 100 nM. As for `COc1c(-c2cc(F)cc3[nH]ccc23)cc(Cl)c2c1-n1c(C)nnc1C(C)(C)N2` [Example 488, 6-Chloro-8-(6-fluoro-1H-indol-4-yl)-9-methoxy-1,4,4-trimethyl-5H-[1,2,4]triazolo[4,3-a]quinoxaline], the IC50 or EC50 (antagonist or agonist mode, not stated per compound) was under 100 nM. Take `Cc1c(-c2cccc3c2cnn3S(C)(=O)=O)c(F)c(F)c2c1-n1c(C)nnc1C(C)(C)N2` [Example 451, 6,7-Difluoro-1,4,4,9-tetramethyl-8-(1-methylsulfonyl-1H-indazol-4-yl)-5H-[1,2,4]triazolo[4,3-a]quinoxaline]: the IC50 or EC50 (antagonist or agonist mode, not stated per compound) is 100 to 1000 nM. For the compound `Cc1c(-c2ccc(F)c3[nH]ncc23)cc(F)c2c1-n1c(C)nnc1C(C)(C)N2` [Example 517, 6-Fluoro-8-(7-fluoro-1H-indazol-4-yl)-1,4,4,9-tetramethyl-5H-[1,2,4]triazolo[4,3-a]quinoxaline], the IC50 or EC50 (antagonist or agonist mode, not stated per compound) is 100 to 1000 nM.
